Results published in article PMC8617627, “Novel DYRK1A Inhibitor Rescues Learning and Memory Deficits in a Mouse Model of Down Syndrome” (Pharmaceuticals, 2021).
Like-named read-outs stand apart in the source and are kept apart here.

Assays:
139-protein kinase panel = experiment: Selectivity on protein kinase panel (GINI-index); conditions: in words
Experimental: The determination of protein kinase inhibition was performed at the International Centre for Kinase Profiling at the University of Dundee, UK. The method used is a radioactive filter binding assay using ^33P ATP as described in the literature [79]. The ATP concentrations were at or below the calculated Km for ATP for each particular kinase.

Ts65Dn mice = experiment: Contextual fear conditioning; assay type: in vivo
Experimental: The capacity for contextual memory of 10- to 16-week old Ts65Dn mice was compared with age-matched euploid control mice using a fear conditioning protocol. Briefly, the mice were exposed for 3 min to the context test chamber serving as a conditioning stimulus, followed by an electric shock for 2 s representing the unconditioned stimulus. […] Freezing, defined as a species-specific defensive reaction characterized by lack of movement besides respiration and heartbeat, associated with crouching posture, was used as a measure of learning, and assessed for 180 s, every 9 s by two trained observers […] of the mouse genotypes and the pharmacological agent being used.
The capacity for contextual memory of 10- to 16-week-old Ts65Dn mice was compared with age-matched euploid control mice using the same fear conditioning protocol used in a previous work with the drug memantine. Briefly, the mice were exposed for 3 min to the context (Med Associates, St. Albans, VT, Modular Mouse Test Chamber) serving as a conditioning stimulus, followed by an electric shock (2 s, 0.7 mA, constant electric current) representing the unconditioned stimulus. […] Freezing, defined as a species-specific defensive reaction characterized by lack of movement besides respiration and heartbeat, associated with crouching posture, was used as a measure of learning, and assessed for 180 s, every 9 s by two trained observers […] of the mouse genotypes and the pharmacological agent being used. The mean number of observations indicating freezing behavior was expressed as percentage of freezing in relation to the total number of observations. All experiments were video-recorded, for automated video-analysis, confirmation of the trained-observer scores, and archival purposes.
In addition, the mice continued to consume these same food preparations during the two days necessary to perform the behavioral testing.

Rat IV pharmacokinetics = assay type: in vivo; conditions: plasma
Experimental: For determining plasma pharmacokinetics blood samples (via cardiac puncture into heparinized tubes and centrifuged for plasma at 4 °C) were serially sampled via jugular vein at […], 0.5, 5, 15, and 30 min, 1, 2, 4, 8, and 24 h timepoints post dosing. Three animals per timepoint were sampled. All samples were stored at −20 °C pending analysis. Bioanalysis was carried out by UHPLC-TOF mass spectrometry using electrospray ionization against matrix matched calibration lines. The pharmacokinetic parameters were subsequently calculated by noncompartmental methods. Samples are prepared by protein precipitation and/or dilution: tissues are homogenized first. Analysis is carried out using a generic internal standard, with matrix-matched calibration standards bracketing the study samples. Samples were analyzed by high resolution accurate mass UHPLC-TOF MS. […] The mass spectrometer was operated in full scan mode, with positive ion electrospray data acquired over the m/z mass range 100–1000.

[1] = male, Sprague-Dawley, IV 1 mg/kg

Row | Structure (SMILES) | Selectivity in the protein kinase panel (139-protein kinase panel) | Learning and memory deficits (freezing in context test) (Ts65Dn mice; Ts65Dn mice, PST-001 in the food) | Tolerability (Ts65Dn mice; Ts65Dn mice, chronic oral administration) | Percentage of freezing behavior (Ts65Dn mice; control euploid mice, PST-001 in the food) | AUCall (Rat IV pharmacokinetics; IV 1 mg/kg) | half-life (Rat IV pharmacokinetics; Sprague-Dawley (rat), C57BL/6 (mouse), intravenous, oral, mouse or rat, IV or PO, read-out: t1/2 in plasma) | Cmax (Rat IV pharmacokinetics; [1]) | Vd (Rat IV pharmacokinetics; [1]) | clearance (Rat IV pharmacokinetics; [1]) | Tmax (Rat IV pharmacokinetics; male, Sprague-Dawley, iv, 1 mg/kg, IV 1 mg/kg, read-out: Tmax) | half-life (Rat IV pharmacokinetics; male, Sprague-Dawley, iv, 1 mg/kg, IV 1 mg/kg, read-out: t½ (converted)) | half-life (Rat IV pharmacokinetics; male, Sprague-Dawley, iv, 1 mg/kg, IV bolus 1 mg/kg, circulation, read-out: t½ (converted)) | Tmax (Rat IV pharmacokinetics; male, Sprague-Dawley, iv, 1 mg/kg, IV bolus 1 mg/kg, read-out: Time of maximum venous concentration (Tmax) (converted))
1 | COc1ccc2sc(-c3cncc(N)c3)nc2c1 [compound 1, 5-(5-Methoxybenzo[d]thiazol-2-yl)pyridin-3-amine] | high selectivity towards DYRK1A | – | – | – | – | – | – | – | – | – | – | – | –
2 | COc1ccc2sc(-c3cncc(NC(C)=O)c3)nc2c1 [PST-001, N-(5-(5-Methoxybenzo[d]thiazol-2-yl)pyridin-3-yl)acetamide] | – | completely eliminated the learning and memory deficits | well tolerated | no detectable effects | 158 h ∗ ng/mL | < 60 min | 647 ng/mL | 2.39 L/kg | 105 mL/min/kg | 1.8 min | 43.2 min | 43 min | 2 min
